# Assay results published in PMC4920590, “GPR142 Controls Tryptophan-Induced Insulin and Incretin Hormone Secretion to Improve Glucose Metabolism” (PLoS ONE, 2016).
# Read-outs that look alike come from different tables or passages of the source.
# Experiments:
# [1] = target: T1, human GPR142 (Homo sapiens, UniProt Q7Z601); assay: IP-1 accumulation assay in HEK293 cells stably expressing human GPR142; assay type: cell-based; settings: for HEK293-hGPR142 EC50 (Emax): activity call, tested 170 nM to 30 mM; for EC50: IP-1 accumulation, 1 hour, 170 nM to 30 mM, read-out: HEK293-hGPR142 EC50; for IP-1 accumulation in HEK-hGPR142 cells: Fig 1A, 1B
# T1 construct: expressed in transfected cells
# T1 sequence (Q7Z601 1-374 isoform Q7Z601-2): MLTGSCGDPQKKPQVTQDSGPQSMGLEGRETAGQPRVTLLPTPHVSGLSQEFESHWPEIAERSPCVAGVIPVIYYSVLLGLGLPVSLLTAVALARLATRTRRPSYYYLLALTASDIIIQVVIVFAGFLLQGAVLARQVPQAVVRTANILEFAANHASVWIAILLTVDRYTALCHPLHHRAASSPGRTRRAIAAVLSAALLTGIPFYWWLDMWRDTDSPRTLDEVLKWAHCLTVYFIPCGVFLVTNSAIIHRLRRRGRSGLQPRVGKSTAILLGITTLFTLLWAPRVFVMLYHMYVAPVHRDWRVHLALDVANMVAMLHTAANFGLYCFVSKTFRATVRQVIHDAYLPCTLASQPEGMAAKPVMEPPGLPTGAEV
# Method: (§1) HEK293 cells obtained from ATCC were used to generate cell lines stably expressing human GPR142 or mouse Gpr142 by transfecting cells with pcDNA3.1 expression vectors containing each cDNA. Cells expanded from single clones were maintained in DMEM containing 10% fetal bovine serum (FBS) and 800 μg/ml G418. Untransfected control HEK293 cells were maintained in DMEM containing 10% FBS. Cells were plated in 384 well plates at 5000 cells per well and allowed 18 hours for attachment. After addition of compounds, cells were incubated for 1 hour. IP-1 measurements were performed using an HTRF assay kit (Cisbio) according to manufacturer’s protocol using assay buffer containing 1 × HBSS (Hank’s Balanced Salt Solution, +Ca, +Mg), 0.1% bovine serum albumin (BSA), 50 mM LiCl and 20 mM HEPES (4-(2-hydroxyethyl)-1-piperazineethanesulfonic acid), pH 7.2. The reaction was stopped by addition of IP1-d2 followed by cryptate solution and the plates were incubated at 25°C for 1 hour. Fluorescence was read in an Envision instrument at 665 nm and 620 nm. The ratio of 665 nm/620 nm was calculated and converted to IP-1 levels using a standard curve method. The data was fit to 4-parameter fit logistics to determine EC50 values.
# [2] = test system: Free Fatty Acid Receptor 1 (FFAR1, GPR40); set-up: method as in PMID 21752941; settings: preclinical models; cited from earlier work
# [3] = set-up: method as in PMID 25787200; settings: humans, phase III study; cited from earlier work
# [4] = target: T2, mouse GPR142 (Mus musculus, UniProt Q7TQN9); assay: IP-1 accumulation assay in HEK293 cells stably expressing mouse Gpr142; assay type: cell-based; settings: for Emax: HEK293, relative efficacy normalized to maximal response of L-Tryptophan (100%), read-out: HEK293-mGPR142 Emax; for EC50: IP-1 accumulation, 1 hour, 170 nM to 30 mM, read-out: HEK293-mGPR142 EC50
# T2 sequence (Q7TQN9 67-365 limits assumed): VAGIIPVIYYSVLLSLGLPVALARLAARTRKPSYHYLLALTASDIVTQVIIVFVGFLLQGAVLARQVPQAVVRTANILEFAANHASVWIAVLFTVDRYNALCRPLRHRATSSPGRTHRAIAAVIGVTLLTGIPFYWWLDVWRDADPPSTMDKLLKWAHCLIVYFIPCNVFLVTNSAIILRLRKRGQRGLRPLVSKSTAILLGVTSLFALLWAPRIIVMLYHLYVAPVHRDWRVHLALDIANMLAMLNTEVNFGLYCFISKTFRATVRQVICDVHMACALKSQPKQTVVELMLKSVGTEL
# Method: as §1
# [5] = test system: murine pancreatic islets; assay: Insulin secretion in isolated murine pancreatic islets (WT and Gpr142 KO); assay type: cell-based, mouse; settings: 11.1 mM glucose, 1 hour
# Method: Secretion was stopped by refrigerating the plates at 4°C for 3 minutes. Supernatant was removed from the wells and assayed for insulin levels using the MA6000 Mouse/Rat Insulin Kit (Meso Scale Discovery).
# [6] = Glucose tolerance test (IPGTT/OGTT) after oral dosing in mice; assay type: in vivo, mouse; settings: for glucose excursion during IPGTT in Gpr142 KO mice / glucose excursion during IPGTT in WT mice: 500 mg/kg p.o. 15 minutes prior to glucose 2 g/kg i.p.
# Method: (§2) Mice were fasted overnight and allowed free access to water. […] Tail blood glucose levels were measured at indicated time points using handheld glucometers. For incretin hormone measurements, blood was collected via cardiac bleeds into EDTA-tubes containing DPP-4 inhibitor (Millipore) and protease inhibitor cocktail (Thermo Fisher). For insulin measurements during GTT, blood was collected from the tail.
# [7] = Plasma insulin and incretin hormone levels after oral dosing in mice; assay type: in vivo, mouse; settings: for GIP release in Gpr142 KO mice / insulin release in Gpr142 KO mice / plasma GLP-1 in Gpr142 KO mice: 500 mg/kg p.o., 10 minutes after dosing, vs WT
# Method: as §2
# Immunoassays were used to measure total GIP (Millipore, ELISA), total GLP-1, and insulin (Meso Scale Discovery). Enzymatic assays were used to measure TG, beta-hydroxybutarate (Sigma-Aldrich), and total cholesterol (Thermo Fisher). HDL-cholesterol was determined in the supernatant after removal of LDL/vLDL-cholesterol by a precipitation reagent (Sigma-Aldrich); non-HDL-cholesterol was determined by subtracting HDL from total cholesterol. Free fatty acids were measured by GC-MS.
# [8] = test system: untransfected control HEK293 cells; assay: IP-1 accumulation in untransfected control HEK293 cells; assay type: cell-based; settings: Fig 1B
# Method: as §1
# [9] = test system: human pancreatic islets; assay: Insulin secretion in isolated human pancreatic islets; assay type: cell-based; settings: 11 mM glucose, 1 hour, non-diabetic donor
# Excerpt: Human pancreatic islets were purchased from Prodo Labs at the Scharp-Lacy Research Institute (Irvine, CA, www.prodolabs.com) through the Integrated Islet Distribution Program in accordance with internal review board (IRB) ethical guidelines for use of human tissue. Islets were isolated at Prodo Labs from human pancreata from listed cadaver organ donors that were refused for primary human pancreas transplantation or isolated islets transplantion into listed diabetic recipients. […] The next day day islets were incubated for 30 min in EBSS buffer containing 0.1% BSA and 3 mM glucose. […] Islets were cultured for 60 min at 37°C. The incubation was stopped by chilling the samples on ice. The culture media was removed and stored at -20°C until its insulin concentration was measured. Insulin was measured using a custom built immunoassay (Meso Scale Discovery).
# [10] = HEK293, relative efficacy normalized to maximal response of L-Tryptophan (100%), read-out: HEK293-hGPR142 Emax
# [11] = 500 mg/kg p.o. 15 minutes prior to glucose 2 g/kg p.o.
# [12] = 150 or 500 mg/kg p.o., overnight fasted normal C57 male mice
smiles,measurement,setting,value
NC(=O)CC[C@H](N)C(=O)O [L-Glutamine],HEK293-hGPR142 EC50 (Emax),[1],Inactive
N=C(N)NCCC[C@H](N)C(=O)O [L-Arginine],Emax,"[1]; HEK293, read-out: HEK293-hGPR142 Emax",23%
same,EC50,[1],> 20 mM
Cc1cc(OCCCS(C)(=O)=O)cc(C)c1-c1cccc(COc2ccc3c(c2)OC[C@H]3CC(=O)O)c1 [TAK-875],glucose-dependent insulin secretion,[2],stimulate glucose-dependent insulin secretion
same,glycemic control,[3],improve glycemic control
N[C@H](Cc1c[nH]c2ccccc12)C(=O)O [D-Tryptophan],Emax,[1]; [10],29%
same,EC50,[1],3.5 mM
same,significant activation of GPR142 signaling at concentrations below 10 mM,[1]; Table 1,None
NCC(=O)O [Glycine],HEK293-hGPR142 EC50 (Emax),[1],Inactive
N[C@@H](Cc1ccccc1)C(=O)O [L-Phenylalanine],IP-1 accumulation in HEK-hGPR142 cells,[1],has an effect in this assay at concentrations comparable to that of L-Trp
same,Emax,[1]; [10],96%
same,EC50,[1],3.5 mM
same,Emax,[4],92%
same,potency on mouse GPR142 relative to L-Trp (fold less potent),[4]; HEK293 cell-based IP-1 assay,4 to 5 fold
same,EC50,[4],2.8 mM
same,insulin secretion in Gpr142 KO islets compared with WT islets,[5],not significantly different
same,insulin secretion in WT murine islets,[5],more modest
same,glucose excursion during IPGTT in Gpr142 KO mice,[6],clearly present
same,glucose excursion during IPGTT in WT mice,[6],clearly present
same,GIP release in Gpr142 KO mice,[7],blunted
same,insulin release in Gpr142 KO mice,[7],blunted
same,plasma GLP-1 in Gpr142 KO mice,[7],increased GLP-1 in KO mice to a similar extent as in WT
O=C(O)[C@@H]1CCCN1 [L-Proline],HEK293-hGPR142 EC50 (Emax),[1],Inactive
N[C@@H](Cc1ccc(O)cc1)C(=O)O [L-Tyrosine],Emax,[1]; [10],14%
same,EC50,[1],16 mM
CC[C@H](C)[C@H](N)C(=O)O [L-Isoleucine],HEK293-hGPR142 EC50 (Emax),[1],Inactive
N[C@@H](Cc1c[nH]cn1)C(=O)O [L-Histidine],HEK293-hGPR142 EC50 (Emax),[1],Inactive
N[C@@H](CC(=O)O)C(=O)O [L-Aspartic Acid],Emax,[1]; [10],41%
same,EC50,[1],> 20 mM
N[C@@H](CS)C(=O)O [L-Cysteine],HEK293-hGPR142 EC50 (Emax),[1],Inactive
N[C@@H](Cc1c[nH]c2ccccc12)C(=O)O [L-Tryptophan],IP-1 accumulation in HEK-hGPR142 cells,[1],stimulated IP-1 accumulation
same,Emax,[1]; [10],100%
same,EC50,[1],2.1 mM
same,IP-1 accumulation in HEK-mGPR142 cells,[4],stimulated IP-1 accumulation
same,Emax,[4],100%
same,EC50,[4],0.62 mM
same,IP-1 accumulation in untransfected control HEK293 cells,[8],had no effect
same,insulin secretion in Gpr142 KO islets compared with WT islets,[5],significantly blunted
same,insulin secretion in WT murine islets,[5],dose-dependently stimulated the release of insulin
same,insulin secretion in human primary islets,[9],robustly stimulated insulin secretion
same,glucose excursion during IPGTT in Gpr142 KO mice,[6],no significant effect
same,glucose excursion during IPGTT in WT mice,[6],suppressed glucose excursion
same,glucose excursion during OGTT in Gpr142 KO mice,[6]; [11],no significant effect
same,glucose excursion during OGTT in WT mice,[6]; [11],suppressed glucose excursion
same,GIP release in Gpr142 KO mice,[7],no L-Trp-dependent release
same,insulin release in Gpr142 KO mice,[7],no L-Trp-dependent release
same,plasma GLP-1 in Gpr142 KO mice,[7],increased GLP-1 in KO mice to a similar extent as in WT
same,"time of peak plasma insulin, GIP and GLP-1 concentrations after dosing","[7]; 150 or 500 mg/kg p.o., normal C57 male mice",5 to 10 min
same,plasma GIP level,[7]; [12],rapidly and dose-dependently increased
same,plasma GLP-1 level,[7]; [12],rapidly and dose-dependently increased
same,plasma insulin level,[7]; [12],rapidly and dose-dependently increased
